Where “and” joins values, the source holds several entries; their conditions need not be identical. Equal entries are not always repeated.
What was measured:
[1] = biological target: T1, Porcine synovial collagenase (Sus scrofa, UniProt P21692); test: Porcine synovial collagenase activity with type I (calf skin) collagen, gel densitometry (PSC/CSC); type: biochemical; settings: acid-soluble calf skin collagen 0.8 μM, 35° C., pH 7.7; a range means 50% inhibition lay between the values; successive lines per compound = diastereomers, higher C18 mobility first
T1 construct: purified porcine synovial collagenase; from tissue; host or cells: pig synovium (synovial enzyme, purified)
T1 sequence (P21692 100-469): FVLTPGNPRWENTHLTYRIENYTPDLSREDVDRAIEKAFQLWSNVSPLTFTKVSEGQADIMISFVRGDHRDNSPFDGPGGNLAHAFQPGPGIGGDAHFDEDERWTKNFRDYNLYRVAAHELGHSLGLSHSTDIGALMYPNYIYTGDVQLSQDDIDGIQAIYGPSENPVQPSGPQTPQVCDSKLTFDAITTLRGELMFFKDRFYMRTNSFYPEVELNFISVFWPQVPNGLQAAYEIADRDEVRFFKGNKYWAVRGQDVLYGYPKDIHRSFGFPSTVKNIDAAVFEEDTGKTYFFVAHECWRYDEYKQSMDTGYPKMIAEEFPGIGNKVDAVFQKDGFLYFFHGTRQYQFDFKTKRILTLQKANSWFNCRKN
Method: Porcine synovial collagenase activity (PSC) was measured with type I collagen essentially as described by Darlak et al. (1990). Varying amounts of inhibitor were added to the acid-soluble calf skin collagen (0.8 μM) at 35° C. in 0.05M tris-HCl, 0.2M NaCl, 5 mM CaCl2, 0.25M glucose, pH 7.7. Collagen degradation was initiated by adding purified porcine synovial collagenase and the reactions were stopped by the addition of an equal volume of sample dilution buffer (Laemmli, 1970) followed by boiling for 2-3 min. Undegraded collagen was resolved from its degradation products by polyacrylamide slab gel electrophoresis as described by Laemmli (1970). The gels were fixed in isopropanol/acetic acid/water (100:40:300 v/v) and then stained with 1% Coomassie Blue R-250 in fixing solution. After destaining, the percentage of α1 chain converted to the corresponding TC fragment was estimated by densitometry using a Bio-Rad model 610 video densitometer. IC50 values were estimated from the dependence of the percent of collagen degraded on inhibitor concentration.

[2] = biological target: T2, pig synovial collagenase (Sus scrofa, UniProt P21692); test: Pig synovial collagenase with fluorogenic substrate FS-7 (PSC/FS-7); type: biochemical; settings: substrate Dnp-Pro-Leu-Gly-Leu-Trp-Ala-D-Arg-NH2; successive lines per compound = diastereomers, higher C18 mobility first
T2 construct: purified porcine synovial collagenase; from tissue; host or cells: pig synovium (synovial enzyme, purified)
T2 sequence (P21692 100-469): T1 sequence (P21692 100-469)
Method: [The source words this procedure for another target and reports this target under the same test.] Recombinant human fibroblast collagenase (rHFC) and porcine synovial gelatinase (PSG) were assayed at 37° C. by the procedure of Stack and Gray (1989). The fluorogenic metalloproteinase substrate Dnp-Pro-Leu-Gly-Leu-Trp-Ala-D-Arg-NH2 was dissolved at an initial concentration of 10 μM in 0.05M tris-HCl, 0.2M NaCl, 5 mM CaCl2, pH 7.7. Hydrolysis of the substrate at the Gly-Leu bond results in an increase in fluorescence that was monitored using an SLM-500C spectrofluorometer with excitation at 280 nm and emission at 346 nm. The reaction was initiated by addition of the enzyme; after determining the initial rate of substrate hydrolysis an aliquot of inhibitor was added and the inhibited rate redetermined. For lower affinity inhibitors (IC50>>[E0 ], where E0 is the enzyme concentration), inhibitor potencies were determined from plots of log (A0 /Ai-1) vs. log [Inhibitor], where A0 is the activity measured in the absence of inhibitor and Ai is that measured in the presence of inhibitor at concentration i (Ambrose et al., 1950). For high affinity inhibitors (IC50 =[E0 ]) only an upper limit of inhibitor potency could be estimated (Dixon and Webb, 1979).

IC50 [1]	IC50 [2]	Compound
1 µM and > 3 µM		CC(C)CC(C(=O)N[C@@H](Cc1ccccc1)C(=O)N[C@@H](C)C(N)=O)C(C)C(=O)NO (single isomer, unassigned) [Compound 16, H4[ONHCOCH(CH3)]--DL--Leu Phe Ala--NH2]
25 to 30 µM	21 µM	H4[ONHCO]--DL--Leu Hal Ala--NH2 [Compound 5]
300 to 500 µM	280 µM	H4[ONHCO]--DL--Leu I'-Hal--NH2 [Compound 7]
250 µM	700 µM	H4[ONHCO]--DL--Leu Phe--NH2 [Compound 1]
180 µM	370 µM	H4[ONHCO]--DL--Leu Trp--NH2 [Compound 2]
1 to 3 µM	1.1 µM	HO--NH--CO--CH2 --CH(CH2 CH(CH3)2 --CO--Nal--Pro--NH2 [Compound 12]

Reference: patent publication US5387610A, “Peptide derivatives of collagenase inhibitor” (Research Corporation Technologies, Inc., priority 1992, dated 1995)
